Measurements taken from the supplement of paper PMC4862054.

These compounds were tested on Hs578T (assay: not given). Settings: 72 h.
Procedure: (§1)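 Drug sensitivity and resistance testing (DSRT) of breast cancer cell lines in 384-well plates, 5 concentrations in 10-fold dilutions over a compound-specific 10,000-fold range. After 72 h, cytotoxicity was read by CellTox Green fluorescence and viability by CellTiter-Glo luminescence (multiplexed), normalised to DMSO and benzethonium chloride controls. EC50 is the inflection point of the fitted dose-response curve (bottom asymptote free, so it can be relative for partial curves) and is censored at the highest tested concentration. Rows with DSS 0 (no meaningful response) were excluded.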

SMILES	EC50, CellTox Green
O=C(Nc1ccncc1)C(=O)c1cn(Cc2ccc(Cl)cc2)c2ccccc12 [Indibulin]	3.45 µM

These compounds were tested on CAL-148 (assay: not given). Settings: 72 h.
Procedure: as §1

SMILES	EC50, CellTox Green
CNC(=O)c1cccc(-c2ccc3c(N4CCOC[C@@H]4C)nc(N4CCOC[C@@H]4C)nc3n2)c1 [AZD2014]	0.13 µM
COc1cc2ncnc(Nc3ccc(F)c(Cl)c3)c2cc1OCCCN1CCOCC1 [Gefitinib]	> 10 µM

What follows are compounds tested on MDA-MB-468 (assay: not given). Settings: 72 h.
Procedure: as §1

SMILES	EC50, CellTox Green
CCn1c(-c2nonc2N)nc2cnc(Oc3cccc(NC(=O)c4ccc(OCCN5CCOCC5)cc4)c3)cc21	> 10 µM
O=C(Nc1ccncc1)C(=O)c1cn(Cc2ccc(Cl)cc2)c2ccccc12 [Indibulin]	1.64 µM

Each compound was assayed on CAL-51 (assay: not given). Settings: 72 h.
Procedure: as §1

SMILES	EC50, CellTox Green
CCn1c(-c2nonc2N)nc2cnc(Oc3cccc(NC(=O)c4ccc(OCCN5CCOCC5)cc4)c3)cc21	0.0481 µM
O=C(Nc1ccncc1)C(=O)c1cn(Cc2ccc(Cl)cc2)c2ccccc12 [Indibulin]	0.86 µM

Each compound was assayed on MDA-MB-231 (assay: not given). Settings: 72 h.
Procedure: as §1

SMILES	EC50, CellTox Green
CCn1c(-c2nonc2N)nc2cnc(Oc3cccc(NC(=O)c4ccc(OCCN5CCOCC5)cc4)c3)cc21	2.95 µM
O=C(Nc1ccncc1)C(=O)c1cn(Cc2ccc(Cl)cc2)c2ccccc12 [Indibulin]	0.472 µM

Each compound was assayed on MFM-223 (assay: not given). Settings: 72 h.
Procedure: as §1

SMILES	EC50, CellTox Green
N#Cc1ccc(COC[C@H]2O[C@@H](n3c(NCc4ccc(Cl)c(Cl)c4)nc4c(N)ncnc43)[C@H](O)[C@@H]2O)cc1	1 µM
CNC(=O)c1cccc(-c2ccc3c(N4CCOC[C@@H]4C)nc(N4CCOC[C@@H]4C)nc3n2)c1 [AZD2014]	> 10 µM
O=C(Nc1ccncc1)C(=O)c1cn(Cc2ccc(Cl)cc2)c2ccccc12 [Indibulin]	0.395 µM

The compounds below were run on BT-474 (assay: not given). Settings: 72 h.
Procedure: as §1

SMILES	EC50, CellTox Green
CN(C)CCOc1ccc(/C(=C(/CCCl)c2ccccc2)c2ccccc2)cc1 [Toremifene]	6.16 µM

These compounds were tested on CAL-85-1 (assay: not given). Settings: 72 h.
Procedure: as §1

SMILES	EC50, CellTox Green
COc1cc2ncnc(Nc3ccc(F)c(Cl)c3)c2cc1OCCCN1CCOCC1 [Gefitinib]	2.9 µM
O=C(Nc1ccncc1)C(=O)c1cn(Cc2ccc(Cl)cc2)c2ccccc12 [Indibulin]	0.858 µM

Each compound was assayed on HCC1937 (assay: not given). Settings: 72 h.
Procedure: as §1

SMILES	EC50, CellTox Green
CN(C)CCOc1ccc(/C(=C(/CCCl)c2ccccc2)c2ccccc2)cc1 [Toremifene]	3.45 µM

Each compound was assayed on Hs578T (assay: normalised response (% of control), CellTiter-Glo; higher = more viable cells (100 = DMSO, 0 = benzethonium chloride kill control)). Settings: incubation time: 72 h.
How it was run: (§2)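 For each plate, 0.1 % DMSO was set to 100 and a positive kill control to 0. Breast cancer cell lines (20 µl suspension) were seeded into 384-well plates already holding compound at 5 concentrations in 10-fold steps over a 10,000-fold range chosen per compound, and incubated for 72 h. CellTox Green fluorescence at 485/520 nm was read before CellTiter-Glo luminescence, which followed 10 min at room temperature. Each value is the normalised signal at one concentration.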

SMILES	normalised response
N#Cc1ccc(COC[C@H]2O[C@@H](n3c(NCc4ccc(Cl)c(Cl)c4)nc4c(N)ncnc43)[C@H](O)[C@@H]2O)cc1 (1000 nM)	86.9%
COc1cc(OC2CCN(C)CC2)ccc1Nc1ncc2c(n1)n(C1CCCC1)c(=O)n2C [AZ 3146] (1000 nM)	100%
CN(C)c1nc(N(C)C)nc(N(C)C)n1 [Altretamine] (1000 nM)	110%
O=C(/C=C/c1cccc(S(=O)(=O)Nc2ccccc2)c1)NO [Belinostat] (1000 nM)	50.6%
O=P1(N(CCCl)CCCl)NCCCO1 (stereo unspecified) [Cyclophosphamide] (4000 nM)	111%
C=C1C[C@@H]2[C@H](CC[C@]3(C)C(=O)CC[C@@H]23)[C@@]2(C)C=CC(=O)C=C12 [Exemestane] (1000 nM)	100%
COc1cc2ncnc(Nc3ccc(F)c(Cl)c3)c2cc1OCCCN1CCOCC1 [Gefitinib] (1000 nM)	106%
O=C(Nc1ccncc1)C(=O)c1cn(Cc2ccc(Cl)cc2)c2ccccc12 [Indibulin] (1000 nM)	57.8%
NC(=O)c1ccc(I)c([N+](=O)[O-])c1 [Iniparib] (1000 nM)	94.6%
CCc1c2c(nc3ccc(OC(=O)N4CCC(N5CCCCC5)CC4)cc13)-c1cc3c(c(=O)n1C2)COC(=O)[C@]3(O)CC [Irinotecan] (1000 nM)	101%
Oc1ccc2c(c1)CC[C@H](c1ccccc1)[C@@H]2c1ccc(OCCN2CCCC2)cc1 [Lasofoxifene] (100 nM)	106%
Cc1ccc(NC(=O)c2ccc(CN3CCN(C)CC3)cc2)cc1Nc1nc(-c2cccnc2)cs1 [Masitinib] (1000 nM)	102%
O=C(Nc1cccnc1)N1CCC(Cc2cccc(Oc3ccc(C(F)(F)F)cn3)c2)CC1 [PF-3845] (1000 nM)	104%
Cc1[nH]c2ccccc2c1CCNCc1ccc(/C=C/C(=O)NO)cc1 [Panobinostat] (100 nM)	27.4%
COCC1(CO)C(=O)C2CCN1CC2 (stereo unspecified) [Prima-1 Met] (1000 nM)	101%
CNC(=O)c1cc(Oc2ccc(NC(=O)Nc3ccc(Cl)c(C(F)(F)F)c3)c(F)c2)ccn1 [Regorafenib] (1000 nM)	93.9%
c1ccc2c(CCNc3ccc(Nc4ccncc4)cc3)c[nH]c2c1 [Serdemetan] (1000 nM)	104%
CN(C)CCOc1ccc(/C(=C(/CCCl)c2ccccc2)c2ccccc2)cc1 [Toremifene] (1000 nM)	107%
CC(C)C[C@@H](C(=O)N[C@H](C(=O)OC1CCCC1)c1ccccc1)[C@H](O)C(=O)NO [Tosedostat] (1000 nM)	84.6%
COCC[n+]1c2c(n(Cc3cnccn3)c1C)C(=O)c1ccccc1C2=O [YM155] (1000 nM)	25.6%

The compounds below were run on MDA-MB-231 in the same assay as above. Settings: incubation time: 72 h.
How it was run: as §2

SMILES	normalised response
N#Cc1ccc(COC[C@H]2O[C@@H](n3c(NCc4ccc(Cl)c(Cl)c4)nc4c(N)ncnc43)[C@H](O)[C@@H]2O)cc1 (1000 nM)	89.8%
COc1cc(OC2CCN(C)CC2)ccc1Nc1ncc2c(n1)n(C1CCCC1)c(=O)n2C [AZ 3146] (1000 nM)	96.7%
CN(C)c1nc(N(C)C)nc(N(C)C)n1 [Altretamine] (1000 nM)	100%
O=C(/C=C/c1cccc(S(=O)(=O)Nc2ccccc2)c1)NO [Belinostat] (1000 nM)	36%
O=P1(N(CCCl)CCCl)NCCCO1 (stereo unspecified) [Cyclophosphamide] (4000 nM)	99.5%
C=C1C[C@@H]2[C@H](CC[C@]3(C)C(=O)CC[C@@H]23)[C@@]2(C)C=CC(=O)C=C12 [Exemestane] (1000 nM)	106%
COc1cc2ncnc(Nc3ccc(F)c(Cl)c3)c2cc1OCCCN1CCOCC1 [Gefitinib] (1000 nM)	101%
O=C(Nc1ccncc1)C(=O)c1cn(Cc2ccc(Cl)cc2)c2ccccc12 [Indibulin] (1000 nM)	78%
NC(=O)c1ccc(I)c([N+](=O)[O-])c1 [Iniparib] (1000 nM)	90%
CCc1c2c(nc3ccc(OC(=O)N4CCC(N5CCCCC5)CC4)cc13)-c1cc3c(c(=O)n1C2)COC(=O)[C@]3(O)CC [Irinotecan] (1000 nM)	98.1%
Oc1ccc2c(c1)CC[C@H](c1ccccc1)[C@@H]2c1ccc(OCCN2CCCC2)cc1 [Lasofoxifene] (100 nM)	107%
Cc1ccc(NC(=O)c2ccc(CN3CCN(C)CC3)cc2)cc1Nc1nc(-c2cccnc2)cs1 [Masitinib] (1000 nM)	105%
O=C(Nc1cccnc1)N1CCC(Cc2cccc(Oc3ccc(C(F)(F)F)cn3)c2)CC1 [PF-3845] (1000 nM)	106%
Cc1[nH]c2ccccc2c1CCNCc1ccc(/C=C/C(=O)NO)cc1 [Panobinostat] (100 nM)	10.2%
COCC1(CO)C(=O)C2CCN1CC2 (stereo unspecified) [Prima-1 Met] (1000 nM)	104%
CNC(=O)c1cc(Oc2ccc(NC(=O)Nc3ccc(Cl)c(C(F)(F)F)c3)c(F)c2)ccn1 [Regorafenib] (1000 nM)	99%
c1ccc2c(CCNc3ccc(Nc4ccncc4)cc3)c[nH]c2c1 [Serdemetan] (1000 nM)	82.4%
CN(C)CCOc1ccc(/C(=C(/CCCl)c2ccccc2)c2ccccc2)cc1 [Toremifene] (1000 nM)	92.6%
CC(C)C[C@@H](C(=O)N[C@H](C(=O)OC1CCCC1)c1ccccc1)[C@H](O)C(=O)NO [Tosedostat] (1000 nM)	59.7%
COCC[n+]1c2c(n(Cc3cnccn3)c1C)C(=O)c1ccccc1C2=O [YM155] (1000 nM)	-0.22%

These compounds were tested on MDA-MB-436 in the same assay as above. Settings: incubation time: 72 h.
How it was run: as §2

SMILES	normalised response
N#Cc1ccc(COC[C@H]2O[C@@H](n3c(NCc4ccc(Cl)c(Cl)c4)nc4c(N)ncnc43)[C@H](O)[C@@H]2O)cc1 (1000 nM)	109%
COc1cc(OC2CCN(C)CC2)ccc1Nc1ncc2c(n1)n(C1CCCC1)c(=O)n2C [AZ 3146] (1000 nM)	110%
CN(C)c1nc(N(C)C)nc(N(C)C)n1 [Altretamine] (1000 nM)	99.3%
O=C(/C=C/c1cccc(S(=O)(=O)Nc2ccccc2)c1)NO [Belinostat] (1000 nM)	51.9%
O=P1(N(CCCl)CCCl)NCCCO1 (stereo unspecified) [Cyclophosphamide] (4000 nM)	97.8%
